Data taken from ChEMBL document CHEMBL1201862, “PubChem BioAssay data set” (2004).
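Protocol summary: plate cells (96-well), add compound at 5 concentrations, incubate 48 h, interpolate endpoints linearly. GI50: concentration for 50% inhibition of growth.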 The source made the active and inactive calls. No stated cut-off is given here; in the data, active = GI50 up to about 1.1 µM and inactive = higher.

Columns and labels:
Test in all cases: inhibition of tumour cell growth, NCI panel, 48 h
MDA-MB-231 = test system: MDA-MB-231
SNB-19 = test system: SNB-19
OVCAR-4 = test system: OVCAR-4
IGROV-1 = test system: IGROV-1
Hs-578T = test system: Hs-578T
HCC 2998 = test system: HCC 2998
NCI-H460 = test system: NCI-H460
BT-549 = test system: BT-549
U-251 = test system: U-251
EKVX = test system: EKVX
M14 = test system: M14
A549 = test system: A549
786-0 = test system: 786-0
TK-10 = test system: TK-10
RPMI-8226 = test system: RPMI-8226
SNB-75 = test system: SNB-75
SR = test system: SR
RXF 393 = test system: RXF 393
SF-295 = test system: SF-295
HOP-92 = test system: HOP-92

SMILES	GI50 (MDA-MB-231)	GI50 (SNB-19)	GI50 (OVCAR-4)	GI50 (IGROV-1)	GI50 (Hs-578T)	GI50 (HCC 2998)	GI50 (NCI-H460)	GI50 (BT-549)	GI50 (U-251)	GI50 (EKVX)	GI50 (M14)	GI50 (A549)	GI50 (786-0)	GI50 (TK-10)	GI50 (RPMI-8226)	GI50 (SNB-75)	GI50 (SR)	GI50 (RXF 393)	GI50 (SF-295)	GI50 (HOP-92)
CCC1(CC)C(=O)N(C(=O)c2ccccc2)N(C(=O)c2ccc(Cl)cc2)C1=O	> 75 µM (inactive)	> 75 µM (inactive)	> 75 µM (inactive)	> 75 µM (inactive)	> 75 µM (inactive)	> 75 µM (inactive)	36.6 µM (inactive)	> 75 µM (inactive)	59.3 µM (inactive)	> 75 µM (inactive)	> 75 µM (inactive)	> 75 µM (inactive)	> 75 µM (inactive)	> 75 µM (inactive)	20 µM (inactive)	> 75 µM (inactive)	16.5 µM (inactive)	> 75 µM (inactive)	> 75 µM (inactive)	
COc1ccc(OC)c(-c2cc(C(=O)O)c3cc4ccccc4cc3n2)c1	> 100 µM (inactive)	> 100 µM (inactive)	> 100 µM (inactive)	> 100 µM (inactive)	> 100 µM (inactive)		> 100 µM (inactive)	> 100 µM (inactive)	> 100 µM (inactive)	> 100 µM (inactive)	> 100 µM (inactive)	> 100 µM (inactive)	> 100 µM (inactive)	> 100 µM (inactive)	> 100 µM (inactive)	> 100 µM (inactive)	> 100 µM (inactive)	> 100 µM (inactive)	> 100 µM (inactive)	> 100 µM (inactive)
CCCNC(=O)Cn1c(-c2ccccc2)cc2ccccc21	32.7 µM (inactive)	> 100 µM (inactive)	24.4 µM (inactive)	43.9 µM (inactive)	31.8 µM (inactive)	> 100 µM (inactive)	92.3 µM (inactive)	> 100 µM (inactive)	> 100 µM (inactive)	30.6 µM (inactive)	> 100 µM (inactive)	67.1 µM (inactive)	54 µM (inactive)	43.1 µM (inactive)	> 100 µM (inactive)	25.9 µM (inactive)	> 100 µM (inactive)	18.5 µM (inactive)	88.7 µM (inactive)	
Cc1cc(N(CCC#N)CCC#N)ccc1C(/N=N/c1ccccc1)=N\NC(=O)c1ccccc1	57 µM (inactive)	40.4 µM (inactive)	29.2 µM (inactive)	28.2 µM (inactive)	31.5 µM (inactive)	22.9 µM (inactive)	29.3 µM (inactive)	24 µM (inactive)	35.7 µM (inactive)	39.4 µM (inactive)	69 µM (inactive)	38.8 µM (inactive)	25.5 µM (inactive)	7.66 µM (inactive)	42.7 µM (inactive)	48.6 µM (inactive)	6.81 µM (inactive)	58.1 µM (inactive)	11.6 µM (inactive)	
CCSc1n/c(=C\c2ccc(N(C)C)cc2)c2nnnn12	> 100 µM (inactive)	> 100 µM (inactive)	> 100 µM (inactive)	> 100 µM (inactive)	> 100 µM (inactive)	> 100 µM (inactive)	> 100 µM (inactive)	> 100 µM (inactive)	> 100 µM (inactive)	> 100 µM (inactive)	> 100 µM (inactive)	> 100 µM (inactive)	> 100 µM (inactive)	> 100 µM (inactive)	> 100 µM (inactive)	> 100 µM (inactive)		> 100 µM (inactive)	99.3 µM (inactive)	> 100 µM (inactive)
CC(=O)N1C(OCc2ccccc2)CCN1c1ccccc1 (stereo not drawn)	> 10 µM (inactive)	> 10 µM (inactive)	> 10 µM (inactive)	> 10 µM (inactive)	> 10 µM (inactive)		> 10 µM (inactive)	> 10 µM (inactive)			> 10 µM (inactive)	> 10 µM (inactive)	> 10 µM (inactive)	> 10 µM (inactive)	> 10 µM (inactive)	> 10 µM (inactive)	> 10 µM (inactive)	> 10 µM (inactive)	> 10 µM (inactive)	3.29 µM (inactive)
COC(=O)c1ccccc1C1CN=NC12Cc1ccc(C)c(C)c1C2=O (stereo not drawn)	40.2 µM (inactive)	> 100 µM (inactive)	31.6 µM (inactive)	> 100 µM (inactive)	> 100 µM (inactive)	68.9 µM (inactive)	52.4 µM (inactive)	> 100 µM (inactive)	> 100 µM (inactive)	> 100 µM (inactive)	62.7 µM (inactive)	57.5 µM (inactive)	> 100 µM (inactive)	56.2 µM (inactive)		61.2 µM (inactive)		76.4 µM (inactive)	46.5 µM (inactive)	28.2 µM (inactive)
[O-][S+](CC1(O)CCCCC1)c1ccccc1 (stereo not drawn)	> 100 µM (inactive)	> 100 µM (inactive)	> 100 µM (inactive)	> 100 µM (inactive)	> 100 µM (inactive)	> 100 µM (inactive)	> 100 µM (inactive)	> 100 µM (inactive)	> 100 µM (inactive)	> 100 µM (inactive)	> 100 µM (inactive)	> 100 µM (inactive)	> 100 µM (inactive)	> 100 µM (inactive)	< 0.01 µM (active)	> 100 µM (inactive)	> 100 µM (inactive)	> 100 µM (inactive)	> 100 µM (inactive)	
NC1=CN(Cc2ccccc2)C2=N/C(=C\c3ccccc3O)C(=O)N12	> 100 µM (inactive)	> 100 µM (inactive)	> 100 µM (inactive)	> 100 µM (inactive)	> 100 µM (inactive)	> 100 µM (inactive)	> 100 µM (inactive)	> 100 µM (inactive)	71.6 µM (inactive)	52.1 µM (inactive)	> 100 µM (inactive)	> 100 µM (inactive)	> 100 µM (inactive)	> 100 µM (inactive)	75.7 µM (inactive)	> 100 µM (inactive)		> 100 µM (inactive)	> 100 µM (inactive)	> 100 µM (inactive)
CC[C@@]1(OC(=O)CN(C)C)C(=O)OCc2c1cc1n(c2=O)Cc2cc3ccccc3nc2-1	3.27 µM (inactive)	0.0208 µM (active)	0.482 µM (active)	0.242 µM (active)	4.24 µM (inactive)	0.145 µM (active)	0.00533 µM (active)	0.0536 µM (active)	0.0118 µM (active)	0.863 µM (active)	0.0525 µM (active)	0.0365 µM (active)	0.0259 µM (active)	1.93 µM (inactive)	0.181 µM (active)	0.0647 µM (active)		0.139 µM (active)	0.01 µM (active)	0.119 µM (active)
CN(C)CCCNc1ccnc2cc([N+](=O)[O-])ccc12	13.3 µM (inactive)		3.35 µM (inactive)	4.06 µM (inactive)	17.9 µM (inactive)		4.97 µM (inactive)	19.1 µM (inactive)	23.7 µM (inactive)		12 µM (inactive)	22.5 µM (inactive)	10.4 µM (inactive)	30.7 µM (inactive)	59.2 µM (inactive)	23.3 µM (inactive)	> 100 µM (inactive)	11.2 µM (inactive)	20.4 µM (inactive)	3.38 µM (inactive)
O=C(O)C1Cc2c([nH]c3ccccc23)C(CCCCO)N1 (stereo not drawn)	> 100 µM (inactive)	> 100 µM (inactive)	> 100 µM (inactive)	> 100 µM (inactive)	> 100 µM (inactive)		> 100 µM (inactive)	> 100 µM (inactive)	> 100 µM (inactive)	> 100 µM (inactive)	> 100 µM (inactive)	> 100 µM (inactive)	> 100 µM (inactive)	> 100 µM (inactive)	> 100 µM (inactive)		> 100 µM (inactive)	> 100 µM (inactive)	> 100 µM (inactive)	> 100 µM (inactive)
C=C1CC2[C@H](C)C(=O)CCC2(C)C2=C1C1CCC(C(C)CCC(=C)C(C)C(=O)O)C1(C)CC2=O (stereo partly drawn)	> 100 µM (inactive)	69.5 µM (inactive)	48.4 µM (inactive)	56.9 µM (inactive)	> 100 µM (inactive)	47 µM (inactive)	34.4 µM (inactive)	37.2 µM (inactive)	55.1 µM (inactive)	71.8 µM (inactive)	> 100 µM (inactive)	66.7 µM (inactive)	20.4 µM (inactive)	44.9 µM (inactive)		95.5 µM (inactive)		30.1 µM (inactive)	62.5 µM (inactive)	29.7 µM (inactive)
C[C@]12O[C@@]3(C)O[C@@]3(C)[C@]3(C)O[C@]3(C)[C@@]1(C)O2	> 100 µM (inactive)	> 100 µM (inactive)	> 100 µM (inactive)		> 100 µM (inactive)			> 100 µM (inactive)	> 100 µM (inactive)	> 100 µM (inactive)	> 100 µM (inactive)	> 100 µM (inactive)	> 100 µM (inactive)	> 100 µM (inactive)		0.598 µM (active)	> 100 µM (inactive)		> 100 µM (inactive)	> 100 µM (inactive)
C#CCN(C(=O)C(F)(F)F)C(/C=C\C(=O)OC)(C(=O)OCC)C(=O)OCC	> 100 µM (inactive)	> 100 µM (inactive)	> 100 µM (inactive)	> 100 µM (inactive)	> 100 µM (inactive)	> 100 µM (inactive)	> 100 µM (inactive)	> 100 µM (inactive)	> 100 µM (inactive)	> 100 µM (inactive)	> 100 µM (inactive)	> 100 µM (inactive)	> 100 µM (inactive)	> 100 µM (inactive)	> 100 µM (inactive)	> 100 µM (inactive)		> 100 µM (inactive)	> 100 µM (inactive)	
